# Test results taken from ChEMBL document CHEMBL5696442, “Discovery of type II inhibitors of TGFβ-activated kinase 1 (TAK1) and mitogen-activated protein kinase kinase kinase kinase 2 (MAP4K2)” (J Med Chem, 2015).
# Calls of active or inactive are those of the source. The calls are words filed in the database; no cut-off is given here.
# Experiments:
# [1] = biological target: Cyclin-dependent kinase 11B (Homo sapiens) (UniProt P21127); experiment: Inhibition of PITSLRE Lys2 labeling site in human Huh-7 cells at 1 uM by KiNativ Profiling analysis relative to control; assay type: cell-based
# [2] = Inhibition of p70S6K ATP labeling site in human Huh-7 cell lysate at 1 uM by KiNativ Profiling analysis relative to control; settings: condition cancer
# [3] = biological target: Serine/threonine-protein kinase Nek4 (Homo sapiens) (UniProt P51957); experiment: Inhibition of NEK4 Lys2 labeling site in human Huh-7 cell lysate at 1 uM by KiNativ Profiling analysis relative to control; assay type: subcellular
# [4] = biological target: Cyclin-dependent kinase 8 (Homo sapiens) (UniProt P49336); experiment: Inhibition of CDK8 Lys2 labeling site in human Huh-7 cell lysate at 1 uM by KiNativ Profiling analysis relative to control; assay type: subcellular
# [5] = biological target: T1, Serine/threonine-protein kinase Nek9 (Homo sapiens) (UniProt Q8TD19); experiment: Inhibition of NEK9 (unknown origin) at 10 uM by Ambit Kinomescan binding assay
# T1 sequence (whole entry): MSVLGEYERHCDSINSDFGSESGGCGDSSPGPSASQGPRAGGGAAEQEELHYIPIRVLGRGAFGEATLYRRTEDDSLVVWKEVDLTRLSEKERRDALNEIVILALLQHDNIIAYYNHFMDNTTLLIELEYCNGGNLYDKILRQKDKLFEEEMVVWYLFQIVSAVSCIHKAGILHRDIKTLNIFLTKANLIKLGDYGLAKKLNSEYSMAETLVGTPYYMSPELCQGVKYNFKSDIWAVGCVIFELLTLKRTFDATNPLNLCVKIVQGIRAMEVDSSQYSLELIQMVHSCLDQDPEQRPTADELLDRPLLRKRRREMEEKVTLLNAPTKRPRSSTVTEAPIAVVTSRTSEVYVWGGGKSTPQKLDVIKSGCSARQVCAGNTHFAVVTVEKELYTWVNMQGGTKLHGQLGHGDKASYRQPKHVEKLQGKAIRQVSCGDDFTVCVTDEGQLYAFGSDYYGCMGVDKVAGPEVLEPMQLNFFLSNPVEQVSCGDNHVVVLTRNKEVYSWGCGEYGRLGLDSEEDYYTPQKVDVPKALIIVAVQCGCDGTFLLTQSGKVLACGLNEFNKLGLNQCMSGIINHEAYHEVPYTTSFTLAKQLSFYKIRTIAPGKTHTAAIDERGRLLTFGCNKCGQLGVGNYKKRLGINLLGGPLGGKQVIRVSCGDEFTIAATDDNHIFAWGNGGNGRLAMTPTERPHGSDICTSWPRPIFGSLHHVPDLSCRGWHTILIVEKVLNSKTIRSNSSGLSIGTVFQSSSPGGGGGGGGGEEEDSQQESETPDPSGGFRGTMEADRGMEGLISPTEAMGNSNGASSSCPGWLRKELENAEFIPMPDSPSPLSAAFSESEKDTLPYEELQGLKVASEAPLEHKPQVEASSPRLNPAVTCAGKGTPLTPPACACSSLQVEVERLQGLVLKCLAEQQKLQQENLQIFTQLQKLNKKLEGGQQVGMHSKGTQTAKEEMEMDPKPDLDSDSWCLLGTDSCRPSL
# [6] = tested on: Fibroblast growth factor receptor 3 (Homo sapiens), P22607 [G697C]; experiment: Inhibition of FGFR3 G697C mutant (unknown origin) at 10 uM by Ambit Kinomescan binding assay relative to control
# [7] = biological target: Citron Rho-interacting kinase (Homo sapiens) (UniProt O14578); experiment: Inhibition of CIT (unknown origin) at 10 uM by Ambit Kinomescan binding assay relative to control; values are per cent of control
# [8] = biological target: Calcium/calmodulin-dependent protein kinase type II subunit delta (Homo sapiens) (UniProt Q13557); experiment: Inhibition of CaMK2d Lys1 labeling site in human A-375 cells at 5 uM by KiNativ Profiling analysis relative to control; assay type: cell-based
# [9] = biological target: Phosphatidylinositol 4-phosphate 3-kinase C2 domain-containing subunit beta (Homo sapiens) (UniProt O00750); experiment: Inhibition of PIK3C2B ATP labeling site in human Huh-7 cells at 1 uM by KiNativ Profiling analysis relative to control; assay type: cell-based
# [10] = biological target: Phosphorylase b kinase gamma catalytic chain, skeletal muscle/heart isoform (Homo sapiens) (UniProt Q16816); experiment: Inhibition of PHKG1 (unknown origin) at 10 uM by Ambit Kinomescan binding assay
# [11] = tested on: Tyrosine-protein kinase ABL1 (Homo sapiens), P00519 [F317L]; experiment: Inhibition of nonphosphorylated ABL1 F317L mutant (unknown origin) at 1 uM by Ambit Kinomescan binding assay relative to control
# [12] = biological target: STE20-like serine/threonine-protein kinase (Homo sapiens) (UniProt Q9H2G2); experiment: Inhibition of SLK Lys1 labeling site in human A-375 cells at 0.5 uM by KiNativ Profiling analysis relative to control; assay type: cell-based
# [13] = biological target: Glycogen synthase kinase-3 beta (Homo sapiens) (UniProt P49841); experiment: Inhibition of GSK3B (unknown origin) at 1 uM by Ambit Kinomescan binding assay relative to control; values are per cent of control
# [14] = biological target: Mitogen-activated protein kinase 14 (Homo sapiens, UniProt Q16539); experiment: Inhibition of p38 alpha Lys2 labeling site in human A-375 cells at 0.5 uM by KiNativ Profiling analysis relative to control; assay type: cell-based
# [15] = biological target: Ephrin type-A receptor 3 (Homo sapiens) (UniProt P29320); experiment: Inhibition of EPHA3 (unknown origin) at 1 uM by Ambit Kinomescan binding assay relative to control; values are per cent of control
# [16] = biological target: G protein-coupled receptor kinase 4 (Homo sapiens) (UniProt P32298); experiment: Inhibition of GRK4 (unknown origin) at 1 uM by Ambit Kinomescan binding assay relative to control; values are per cent of control
# G protein-coupled receptor kinase 4 (Homo sapiens), sequence (P32298 whole entry, looked up): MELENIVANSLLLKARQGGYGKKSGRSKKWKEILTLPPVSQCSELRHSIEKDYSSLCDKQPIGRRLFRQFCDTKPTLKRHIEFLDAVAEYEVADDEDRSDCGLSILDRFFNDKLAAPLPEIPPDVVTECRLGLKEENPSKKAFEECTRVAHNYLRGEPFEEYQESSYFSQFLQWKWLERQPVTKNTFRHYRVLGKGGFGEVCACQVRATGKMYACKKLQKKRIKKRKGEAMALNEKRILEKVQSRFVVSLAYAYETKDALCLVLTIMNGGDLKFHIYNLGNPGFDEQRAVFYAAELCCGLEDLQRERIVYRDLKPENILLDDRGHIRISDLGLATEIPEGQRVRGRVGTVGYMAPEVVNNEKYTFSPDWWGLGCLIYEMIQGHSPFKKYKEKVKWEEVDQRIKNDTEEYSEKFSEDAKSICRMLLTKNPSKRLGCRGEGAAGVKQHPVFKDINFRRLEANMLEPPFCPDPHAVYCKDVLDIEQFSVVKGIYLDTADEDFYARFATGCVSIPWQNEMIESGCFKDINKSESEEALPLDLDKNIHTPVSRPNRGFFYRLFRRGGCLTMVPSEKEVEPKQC
# Tyrosine-protein kinase ABL1 (Homo sapiens), P00519 [F317L], sequence (P00519 whole entry F317L): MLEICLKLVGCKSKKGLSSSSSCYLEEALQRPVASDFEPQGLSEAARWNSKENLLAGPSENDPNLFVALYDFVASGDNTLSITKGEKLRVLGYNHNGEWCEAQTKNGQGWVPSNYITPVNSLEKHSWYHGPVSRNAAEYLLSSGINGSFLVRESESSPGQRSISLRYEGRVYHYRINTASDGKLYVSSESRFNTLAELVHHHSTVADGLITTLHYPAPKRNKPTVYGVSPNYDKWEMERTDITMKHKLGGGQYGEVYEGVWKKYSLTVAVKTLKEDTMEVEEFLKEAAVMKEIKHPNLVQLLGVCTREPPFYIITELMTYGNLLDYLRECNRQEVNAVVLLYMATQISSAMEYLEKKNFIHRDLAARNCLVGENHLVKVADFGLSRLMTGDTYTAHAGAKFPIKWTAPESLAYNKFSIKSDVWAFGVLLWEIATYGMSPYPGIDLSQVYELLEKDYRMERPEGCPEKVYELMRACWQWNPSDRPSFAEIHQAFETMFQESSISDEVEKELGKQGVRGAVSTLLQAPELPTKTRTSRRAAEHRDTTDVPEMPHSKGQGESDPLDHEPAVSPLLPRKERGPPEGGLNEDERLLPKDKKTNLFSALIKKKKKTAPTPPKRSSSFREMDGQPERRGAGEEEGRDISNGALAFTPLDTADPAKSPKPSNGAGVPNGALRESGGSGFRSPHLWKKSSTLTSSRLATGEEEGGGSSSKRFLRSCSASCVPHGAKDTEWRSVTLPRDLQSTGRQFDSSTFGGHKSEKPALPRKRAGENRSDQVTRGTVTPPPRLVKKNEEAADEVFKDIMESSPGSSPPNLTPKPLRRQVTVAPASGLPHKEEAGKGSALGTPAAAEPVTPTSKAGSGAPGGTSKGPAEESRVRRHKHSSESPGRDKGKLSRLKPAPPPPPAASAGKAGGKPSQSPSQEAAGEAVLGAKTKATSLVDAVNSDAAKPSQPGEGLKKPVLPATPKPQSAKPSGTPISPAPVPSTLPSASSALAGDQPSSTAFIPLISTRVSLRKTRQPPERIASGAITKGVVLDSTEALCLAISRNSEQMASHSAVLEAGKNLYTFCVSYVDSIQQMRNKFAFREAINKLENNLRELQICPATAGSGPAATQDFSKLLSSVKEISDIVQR
# Mitogen-activated protein kinase 14, sequence (Q16539 whole entry): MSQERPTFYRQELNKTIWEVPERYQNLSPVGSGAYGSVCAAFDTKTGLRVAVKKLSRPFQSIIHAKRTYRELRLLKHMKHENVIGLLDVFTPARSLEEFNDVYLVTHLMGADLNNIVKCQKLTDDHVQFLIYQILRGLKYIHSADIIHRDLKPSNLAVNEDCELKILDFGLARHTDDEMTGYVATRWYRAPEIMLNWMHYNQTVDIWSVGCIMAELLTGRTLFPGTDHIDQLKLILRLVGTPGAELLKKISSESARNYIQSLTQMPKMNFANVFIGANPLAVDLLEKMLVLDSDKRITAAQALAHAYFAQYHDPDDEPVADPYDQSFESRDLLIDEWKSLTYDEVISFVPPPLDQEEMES
# Fibroblast growth factor receptor 3 (Homo sapiens), P22607 [G697C], sequence (P22607 whole entry G697C): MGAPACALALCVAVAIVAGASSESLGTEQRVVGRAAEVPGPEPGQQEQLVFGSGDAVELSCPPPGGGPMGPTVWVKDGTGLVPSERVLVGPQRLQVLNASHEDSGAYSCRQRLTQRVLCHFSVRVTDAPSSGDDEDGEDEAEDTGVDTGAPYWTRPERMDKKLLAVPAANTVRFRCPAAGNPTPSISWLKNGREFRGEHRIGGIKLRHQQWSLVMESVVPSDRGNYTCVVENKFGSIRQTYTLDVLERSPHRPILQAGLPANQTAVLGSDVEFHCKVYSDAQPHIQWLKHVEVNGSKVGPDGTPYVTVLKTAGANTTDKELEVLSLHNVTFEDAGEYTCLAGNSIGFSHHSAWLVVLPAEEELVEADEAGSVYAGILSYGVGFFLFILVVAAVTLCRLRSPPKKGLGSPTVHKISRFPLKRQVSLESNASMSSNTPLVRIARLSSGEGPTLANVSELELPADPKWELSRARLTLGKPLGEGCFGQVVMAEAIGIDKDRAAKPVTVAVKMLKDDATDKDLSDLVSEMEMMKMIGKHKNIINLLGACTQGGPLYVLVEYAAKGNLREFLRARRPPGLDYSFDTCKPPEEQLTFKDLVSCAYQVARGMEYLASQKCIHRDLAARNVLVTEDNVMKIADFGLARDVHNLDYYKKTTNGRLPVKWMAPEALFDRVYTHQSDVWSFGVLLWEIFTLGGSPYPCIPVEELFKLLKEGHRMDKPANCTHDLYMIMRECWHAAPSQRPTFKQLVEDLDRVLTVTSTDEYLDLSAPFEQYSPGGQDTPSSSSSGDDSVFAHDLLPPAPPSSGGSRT
# Ephrin type-A receptor 3 (Homo sapiens), sequence (P29320 whole entry): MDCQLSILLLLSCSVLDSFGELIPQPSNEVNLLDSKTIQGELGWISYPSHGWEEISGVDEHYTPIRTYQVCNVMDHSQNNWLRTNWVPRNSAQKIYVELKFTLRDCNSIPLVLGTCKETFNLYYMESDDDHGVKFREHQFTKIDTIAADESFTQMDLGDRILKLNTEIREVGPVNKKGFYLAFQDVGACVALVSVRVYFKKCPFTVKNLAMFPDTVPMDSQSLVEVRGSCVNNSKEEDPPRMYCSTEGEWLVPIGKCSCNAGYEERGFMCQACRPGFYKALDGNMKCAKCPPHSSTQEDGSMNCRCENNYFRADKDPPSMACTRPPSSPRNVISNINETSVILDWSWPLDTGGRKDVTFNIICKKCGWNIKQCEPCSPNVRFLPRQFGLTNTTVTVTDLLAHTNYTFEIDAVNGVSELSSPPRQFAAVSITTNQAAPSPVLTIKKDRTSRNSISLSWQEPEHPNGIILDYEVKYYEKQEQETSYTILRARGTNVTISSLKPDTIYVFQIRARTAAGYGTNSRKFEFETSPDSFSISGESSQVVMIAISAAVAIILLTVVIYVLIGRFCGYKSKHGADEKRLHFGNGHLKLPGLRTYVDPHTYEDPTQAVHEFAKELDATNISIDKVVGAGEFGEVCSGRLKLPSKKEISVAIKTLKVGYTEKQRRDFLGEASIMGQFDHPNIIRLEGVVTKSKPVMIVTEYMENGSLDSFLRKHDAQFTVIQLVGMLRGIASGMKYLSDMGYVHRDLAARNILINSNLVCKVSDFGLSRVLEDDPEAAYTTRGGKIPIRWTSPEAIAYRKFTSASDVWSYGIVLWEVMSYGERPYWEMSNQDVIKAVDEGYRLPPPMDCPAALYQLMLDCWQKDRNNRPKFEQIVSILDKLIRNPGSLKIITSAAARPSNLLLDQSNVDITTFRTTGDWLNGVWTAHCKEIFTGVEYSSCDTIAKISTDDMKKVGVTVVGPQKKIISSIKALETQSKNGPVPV
# Cyclin-dependent kinase 11B (Homo sapiens), sequence (P21127 whole entry): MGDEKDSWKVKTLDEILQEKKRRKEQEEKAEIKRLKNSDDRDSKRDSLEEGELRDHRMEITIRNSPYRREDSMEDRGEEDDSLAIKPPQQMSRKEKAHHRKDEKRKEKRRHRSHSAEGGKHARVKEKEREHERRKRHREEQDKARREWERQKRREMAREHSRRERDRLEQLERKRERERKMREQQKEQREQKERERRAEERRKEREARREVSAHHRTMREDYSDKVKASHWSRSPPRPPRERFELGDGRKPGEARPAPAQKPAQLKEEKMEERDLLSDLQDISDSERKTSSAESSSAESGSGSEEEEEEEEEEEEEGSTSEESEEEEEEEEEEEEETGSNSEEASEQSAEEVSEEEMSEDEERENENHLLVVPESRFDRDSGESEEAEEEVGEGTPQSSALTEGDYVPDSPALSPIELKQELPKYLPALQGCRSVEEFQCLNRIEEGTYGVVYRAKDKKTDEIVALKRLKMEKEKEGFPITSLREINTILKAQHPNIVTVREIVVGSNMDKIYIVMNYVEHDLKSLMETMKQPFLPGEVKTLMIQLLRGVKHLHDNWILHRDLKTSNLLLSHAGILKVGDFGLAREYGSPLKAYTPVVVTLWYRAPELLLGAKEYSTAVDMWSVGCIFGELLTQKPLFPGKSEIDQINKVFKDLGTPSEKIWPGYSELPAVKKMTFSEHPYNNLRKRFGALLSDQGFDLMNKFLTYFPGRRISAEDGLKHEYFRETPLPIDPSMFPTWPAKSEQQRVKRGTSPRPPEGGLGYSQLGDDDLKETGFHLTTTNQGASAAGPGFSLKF
# Glycogen synthase kinase-3 beta (Homo sapiens), sequence (P49841 whole entry, looked up): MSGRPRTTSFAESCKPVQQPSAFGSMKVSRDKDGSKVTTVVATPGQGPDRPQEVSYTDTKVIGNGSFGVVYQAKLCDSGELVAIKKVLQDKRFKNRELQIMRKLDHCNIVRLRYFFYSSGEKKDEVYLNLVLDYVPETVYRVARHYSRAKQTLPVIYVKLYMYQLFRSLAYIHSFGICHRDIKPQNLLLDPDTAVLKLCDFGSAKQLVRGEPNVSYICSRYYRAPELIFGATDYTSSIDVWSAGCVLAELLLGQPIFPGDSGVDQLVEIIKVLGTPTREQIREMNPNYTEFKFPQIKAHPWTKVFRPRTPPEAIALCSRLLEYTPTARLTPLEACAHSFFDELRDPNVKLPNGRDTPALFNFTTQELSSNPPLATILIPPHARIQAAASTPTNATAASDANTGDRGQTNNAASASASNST
smiles,measurement,setting,value
CNc1cc(Oc2cc(C(=O)Nc3cc(N4CCN(C)CC4)cc(C(F)(F)F)c3)ccc2C)ncn1,inhibition,[1],15.6%
same,inhibition at 1 µM,[2],2.8%
same,inhibition,[3],-2.2%
same,inhibition,[4],-8.6%
CCN1CCN(Cc2ccc(NC(=O)c3ccc(C)c(Oc4ccnc5[nH]ccc45)c3)cc2C(F)(F)F)CC1,inhibition,[5],inactive
same,inhibition,[6],16%
same,percent of control,[7],0.1%
same,inhibition,[8],18.9%
same,inhibition,[9],-9.4%
same,inhibition,[10],inactive
CCN1CCN(Cc2ccc(NC(=O)c3ccc(C)c(/C=C/c4cnc5[nH]ccc5c4OC)c3)cc2C(F)(F)F)CC1,inhibition,[11],0%
same,inhibition,[12],6.8%
same,residual activity,[13],100%
same,inhibition,[14],59.5%
same,residual activity,[15],5.7%
same,residual activity,[16],40%
